Assay results published in the supplement of paper PMC10307832.

What was measured:
Assay in all cases: relative viability (nuclei count vs DMSO), 5 days (fraction); higher = more cells survive
[1] = compound: O=C(/C=C/c1cccnc1)NCCCCC1CCN(C(=O)c2ccccc2)CC1 [Daporinad] + N=C(N)NC(=N)NCCc1ccccc1 [Phenformin] (partner 250 µM)
Procedure, shortened: (§1)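 Relative viability is defined as nuclei in treated wells over nuclei in vehicle wells. Duplicate plates were run and medians reported. Lung cancer cell lines in 1536-well plates were dosed by pin tool one day after seeding, with one drug or with a fixed anchor-drug dose plus five library-drug doses (not always all listed) in √10 steps, and nuclei were counted after 5 days.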

[2] = compound: COc1cc(Nc2ncc(F)c(Nc3ccc4c(n3)NC(=O)C(C)(C)O4)n2)cc(OC)c1OC [R406] + C[C@@H](Oc1cc(-c2cnn(C3CCNCC3)c2)cnc1N)c1c(Cl)ccc(F)c1Cl [Crizotinib] (partner 1 µM)
Procedure, shortened: as §1

[3] = compound: O=C(/C=C/c1cccnc1)NCCCCC1CCN(C(=O)c2ccccc2)CC1 [Daporinad] + CC(C)C[C@H](NC(=O)[C@H](Cc1ccccc1)NC(=O)c1cnccn1)B(O)O [Bortezomib] (partner 0.002 µM)
Procedure, shortened: as §1

[4] = compound: COc1cc(Nc2ncc(F)c(Nc3ccc4c(n3)NC(=O)C(C)(C)O4)n2)cc(OC)c1OC [R406] + CS(=O)(=O)N1CCN(Cc2cc3nc(-c4cccc5[nH]ncc45)nc(N4CCOCC4)c3s2)CC1 [Pictilisib] (partner 1 µM)
Procedure, shortened: as §1

Cell Line: UMC-11
- relative viability ([1]; first compound 0.0005 µM): 0.266
- relative viability ([1]; first compound 0.001581 µM): 0.348
- relative viability ([1]; first compound 0.005 µM): 0.353
- relative viability ([1]; first compound 0.01581 µM): 0.367
- relative viability ([2]; first compound 0.08 µM): 0.628
- relative viability ([2]; first compound 0.253 µM): 0.88
- relative viability ([2]; first compound 0.8 µM): 0.663
- relative viability ([2]; first compound 2.53 µM): 0.392
- relative viability ([2]; first compound 8 µM): 0.119
- relative viability ([3]; first compound 0.0005 µM): 0.668
- relative viability ([3]; first compound 0.001581 µM): 0.373
- relative viability ([3]; first compound 0.005 µM): 0.678
- relative viability ([3]; first compound 0.01581 µM): 0.827
- relative viability ([4]; first compound 0.08 µM): 0.864
- relative viability ([4]; first compound 0.253 µM): 1.07
- relative viability ([4]; first compound 0.8 µM): 0.863
- relative viability ([4]; first compound 2.53 µM): 0.568
- relative viability ([4]; first compound 8 µM): 0.369
